This note sets out measurements from patent publication US8772022B2, “Hepatitis C virus expressing reporter tagged NS5A protein” (Hvidovre Hospital, priority 2008, dated 2014).

The series deals with Huh7.5 cells. In words: Supernatant infectivity titer, focus forming unit (FFU) method on Huh7.5 cells. Format: cell-based, human. The protocol:
To determine the efficiency of the developed system, HCV RNA titers are determined in IU/ml (international units/ml) with Taq-Man Real-Time-PCR and infectious titers are determined with a focus-forming units (FFU) method: in this method, infectivity titers are determined by infection of cell culture replicates with serial dilutions of virus containing supernatants and, following immuno-stainings for HCV antigens, counting of HCV-antigen positive cell foci. Alternatively the infectious titers are determined as 50% tissue culture infectious dose.
Viral spread was monitored by HCV Core and NS5A immunostainings with mouse anti-HCV core protein monoclonal antibody (B2) (Anogen, Yes Biotech Laboratories) or anti-NS5A, 9E10, respectively, as described in the following section. For reporter viruses tagged with fluorescent reporter gene, viral spread was also monitored by direct visualization of the reporter gene by fluorescence microscopy. For reporter viruses tagged with hRLuc reporter gene, viral spread was also monitored by luminescence-based assay as described below. Supernatant infectivity titers were determined as 50% tissue culture infectious dose (TCID50)/mL or as focus forming units (FFU)/mL, as described in the following section. Supernatant HCV RNA titers were measured by a 5′ UTR based Real Time RT-PCR as described below.
Viral infectivity titers were determined by the tissue culture infectious dose 50 (TCID50) or focus forming unit method. 6×10^3/well naive Huh7.5 cells were plated out in a poly-D-lysine coated 96-well plate (Nunc) the day before infection. Cells were then incubated with 10-fold dilutions of cell culture supernatants. For TCID50 determinations, 6 replicates per dilution were incubated for 2-3 days. For FFU determinations, wells were incubated for 48 rs. After incubation, cells were permeabilized for 5′ with cold methanol. After washing 1× with PBS and 1× with PBS/Tween-20, blocking was carried out for 20′ with sterile filtered 1% BSA/0.2% skim milk in PBS followed by a 5′ blocking of endogenous peroxidase activity using 3% H2O2. Cells were washed as above and incubated with a 1:200 dilution of 1° Ab α-NS5A (9E10) in PBS/0.1% tween-20 over night at 4° C. After washing, a 1:300 dilution of 2° Ab HRP-goat anti-mouse IgG (H+L) (Amersham Biosciences) in PBS/0.1% tween-20 was added and incubated for 30′ at room temperature. Staining was developed using DAB substrate kit (DAKO) for 30′ after washing. In TCID50 determinations, wells were scored positive if one or more cells were infected, and the TCID50 was calculated according to the Reed and Muench method. TCID50 values are derived from single or multiple determinations as indicated. FFU determinations are based on counts of wells with 5-100 FFU and three independent virus dilutions with one replicate each. Counts were obtained by counting FFU by eye or by using automated counting on an ImmunoSpot Series 5 UV Analyzer (CTL Europe GmbH) with customized software kindly provided by CTL. From FFU counts in experimental wells, the mean of spot counts of at least 6 negative control wells was subtracted (˜usually 3 to 15 spots).

Setting [1] is: day 5 post transfection, Huh7.5.
Where [2] appears, read: day 8 post transfection, Huh7.5.

Take “S52^5′UTR/HK6a^C-NS2/JFH1T1388C, A1589C: 6a Core-NS2 recombinant with heterotypic 3a (S52) 5′UTR”: the “Infectivity titer of transfection supernatant Log10 (FFU/mL)” value reads like this: under setting [1], 3.29 Log10 (FFU/mL); under setting [2], 3.15 Log10 (FFU/mL).
Regarding “S52^5′UTR/J4^C-NS2/JFH1T2995C, A4826T: 1b Core-NS2 recombinant with heterotypic 3a (S52) 5′UTR”, the “Infectivity titer of transfection supernatant Log10 (FFU/mL)” value is reported as 2.03 Log10 (FFU/mL) under setting [1] and 1.67 Log10 (FFU/mL) under setting [2].
With “J4^5′UTR-NS2/JFH1T2997C, A4828T: 1b Core-NS2 recombinant with homotypic 1b (J4) 5′UTR”, the “Infectivity titer of transfection supernatant Log10 (FFU/mL)” value was 2.47 Log10 (FFU/mL) under setting [1] and 2.07 Log10 (FFU/mL) under setting [2].
As for “J8^5′UTR-NS2/JFH1: 2b Core-NS2 recombinant with homotypic 2b (J8) 5′UTR”, the “Infectivity titer of transfection supernatant Log10 (FFU/mL)” value under setting [1] is 3.94 Log10 (FFU/mL) and the “Infectivity titer of transfection supernatant Log10 (FFU/mL)” value under setting [2] is recorded as 3.75 Log10 (FFU/mL).
In the case of “H77^5′UTR/HK6a^C-NS2/JFH1T1390C, A1591C: 6a Core-NS2 recombinant with heterotypic 1a (H77) 5′UTR”, the “Infectivity titer of transfection supernatant Log10 (FFU/mL)” value is, setting by setting: under setting [1], 3.60 Log10 (FFU/mL); under setting [2], 3.23 Log10 (FFU/mL).
For “H77^5′UTR/J4^C-NS2/JFH1T2997C, A4828T: 1b Core-NS2 recombinant with heterotypic 1a (H77) 5′UTR” the same measures were 3.32 Log10 (FFU/mL) and 2.49 Log10 (FFU/mL).
Consider “H77^5′UTR/S52^C-NS2/JFH1T2719G, A4551C: 3a Core-NS2 recombinant with heterotypic 1a (H77) 5′UTR”, for which the “Infectivity titer of transfection supernatant Log10 (FFU/mL)” value is, setting by setting: under setting [1], 4.07 Log10 (FFU/mL); under setting [2], 4.22 Log10 (FFU/mL).
As for “HK6a^5′UTR-NS2/JFH1T1391C, A1592C: 6a Core-NS2 recombinant with homotypic 6a (HK6a) 5′UTR”, the “Infectivity titer of transfection supernatant Log10 (FFU/mL)” value runs as follows: (day 5 post transfection, * another, independent transfection experiment) 4.57 Log10 (FFU/mL); (day 7 post transfection, * another, independent transfection experiment) 4.39 Log10 (FFU/mL).
“S52^5′UTR/J8^C-NS2/JFH1: 2b Core-NS2 recombinant with heterotypic 3a (S52) 5′UTR”: the “Infectivity titer of transfection supernatant Log10 (FFU/mL)” value under setting [1] is 3.08 Log10 (FFU/mL) and the “Infectivity titer of transfection supernatant Log10 (FFU/mL)” value under setting [2] is 2.10 Log10 (FFU/mL).
Regarding “H77^5′UTR/J8^C-NS2/JFH1: 2b Core-NS2 recombinant with heterotypic 1a (H77) 5′UTR”, the “Infectivity titer of transfection supernatant Log10 (FFU/mL)” value is, setting by setting: under setting [1], 3.41 Log10 (FFU/mL); under setting [2], 2.58 Log10 (FFU/mL).
Regarding “S52^5′UTR-NS2/JFH1T2717G, A4549C: 3a Core-NS2 recombinant with homotypic 3a (S52) 5′UTR”, the “Infectivity titer of transfection supernatant Log10 (FFU/mL)” value is listed as 4.57 Log10 (FFU/mL) under setting [1] and 4.53 Log10 (FFU/mL) under setting [2].
